PubChem BioAssay AID2305 (GlaxoSmithKline (GSK), 2010)

tested on: P. falciparum 3D7 growth, pLDH absorbance; experiment: blood-stage malaria parasite growth potency – strain 3D7, dose response (AID 2305)

SMILES	IC50 [nM]
COc1ccc(NC(=O)[C@H](Cc2ccccc2)Nc2cc(C)nc(NCCc3ccccn3)n2)cc1	830
COc1cc2nc(N3CCN(C(=O)c4c(Cl)nsc4-c4ccccc4Cl)CC3)nc(N)c2cc1OC	530
CCCN(CC1CC1)c1ncc(-c2cccc(CNCc3ccccc3O)c2)cn1	700
CN1CCN(c2ccnc3ccc(NC(=O)Nc4ccc5c(c4)CCC5=O)cc23)CC1	330
CC1CN(Cc2csc(Nc3ccccc3)n2)CC(C)O1 (stereo unspecified)	1020
COc1cc(C=CC(=O)NC2CCC(CN3CCC(c4c[nH]c5ccccc45)CC3)CC2)cc(OC)c1 (stereo unspecified)	810
CC(C)(C(=O)NCCC1CCN(CCCCCNC(=O)/C=C/c2ccc(Cl)c(Cl)c2)CC1)c1ccc(Cl)cc1	1280
c1ccc2[nH]c(CN(Cc3nc4ccccc4[nH]3)Cc3nc4ccccc4[nH]3)nc2c1	670
FC(F)(F)c1cc(Nc2ccc(Oc3ccccc3)cc2)c2cc(-c3ccncc3)ccc2n1	450
CCOc1cc(C(=O)NCC2CCN(CC3CCCCC3)CC2)ccc1-c1nc2ccc(Cl)cc2[nH]1	560
CC[C@H]1CN2CC[C@H]1C[C@H]2[C@H](O)c1cc(-c2ccc(SC)cc2)nc2ccc(OC)cc12	60
Cc1nc(-c2ccncc2)sc1C(=O)Nc1ccc(Cl)cc1C(=O)Nc1ccc(Cl)cc1	760
CC(C)CNCc1cccc(-c2ccccc2CN(C(=O)Nc2ccccc2)C2CCN(Cc3ccccc3)CC2)c1	640
CCCC(=O)Nc1ccc(OCCCCN(CC(C)(C)C)c2ccc(C#N)c(C(F)(F)F)c2)cc1	1350
CCOc1ccc(-c2nc3ccc(-c4nc5ccc(N6CCN(C)CC6)cc5[nH]4)cc3[nH]2)cc1	110
Cc1ccc(-c2nc3ccc(C(=O)NC4CCC(N5CCCc6ccc(C#N)cc6C5)CC4)cc3[nH]2)cc1 (stereo unspecified)	1360
CN(C)c1ccc(C(c2ccc(N(C)C)cc2)c2cc([N+](=O)[O-])ccc2Cl)cc1	910
CN1CCN(c2ccc(-c3cccc(NC(=O)c4ccc5ccccc5c4)c3)nn2)CC1	380
CS(=O)(=O)Cc1ccc(Nc2nccc(-c3c(-c4cccc(NC(=O)c5c(F)cccc5F)c4)nn4ccccc34)n2)cc1	150
COc1cccc2cc(C(=O)N[C@@H](CC(C)C)C(=O)N[C@H](/C=N/NC(=O)OC(C)(C)C)CC(C)C)oc12	900
CCOC(=O)NC1=NC(C)(C)N(OCCCOc2ccc(C)cc2C)C(NC(=O)OCC)=N1	130
CCCCNC(=O)[C@@H]1CCCN1C(=O)c1ccc(O)c(-c2ccc(Cl)c(Cl)c2)c1	750
Cc1sc2nc(CN3CCCC3)nc(-n3c(NCCO)nc4ccccc43)c2c1C	1240
CCCOC(=O)C1=C(C)NC2=C(C(=O)CC(c3ccc(OC)c(OC)c3)C2)C1c1cccc(O)c1 (stereo unspecified)	120

SMILES	IC50 [nM]
c1cc(CN2CCN(c3ccncc3)CC2)cc(-c2ccc(-c3nc4ccccc4[nH]3)s2)c1	150
COCCCN=C(N)c1ccc(NC(=O)c2ccc(C(=O)Nc3ccc(C(N)=NCCCOC)cc3)cc2)cc1	50
COc1ccc(-c2cc(C(=O)N[C@@H](CC3CCCCC3)C(=O)NCCN3CCCCC3)ccc2O)cc1	950
COc1ccc2nc(-c3ccccc3)cc(NCCN(C)C)c2c1	730
c1ccc(CN2CCC(NCc3cccc(-c4cncc5ccccc45)c3)CC2)cc1	1360
CC(CCCCC(=O)Nc1ccc(CC(C)NCCc2cccc(Cl)c2)cc1)NCCc1cccc(Cl)c1 (stereo unspecified)	1010
N=C(N)c1ccc(NN=Cc2ccc(Oc3ccc(C(=N)N)cc3)cc2)cc1	90
CN(C)CCCn1cncc1-c1ccc2ncnc(Nc3ccc4c(cnn4Cc4ccccc4)c3)c2c1	730
CNCCCn1c(N(C)C)nc2cc(-n3cnc4cc(-c5ccc(Cl)cc5)sc4c3=O)ccc21	1140
COc1ccc2nccc([C@@H](O)CN3CCC(NCCOc4ccccc4C(F)(F)F)CC3)c2c1	750
CN(C)CCC(O)(c1ccc(Br)cc1)c1cccnc1 (stereo unspecified)	830
Cc1cc(C(F)(F)F)n2nc(C(=O)N(C)Cc3cncn3Cc3ccc(F)cc3)cc2n1	830
Cc1ccc(C)c(S(=O)(=O)Nc2ccc(Br)cc2C(=O)Nc2cccc(C(F)(F)F)c2)c1	1210
CCc1ccc(C2CCN(CCCCNC(=O)c3ccc(NC(=O)c4ccc(Cl)cc4)cc3)CC2)c(OC)c1	790
COc1ccc2nc(C)cc(N/N=C/C=C/c3ccccc3)c2c1	700
Cc1cc(O)c(CN2CCN(Cc3cccs3)CC2)cc1C(C)C	720
CN(c1ccc(NC(=O)Nc2cc(C(C)(C)C)on2)cc1)c1ccnc(NCCN2CCOCC2)n1	1120
O=S(=O)(c1cccc(Cl)c1F)N(CCC(O)(C(F)(F)F)C(F)(F)F)Cc1cccc(O)c1	920
Cc1[nH]c(C)c(-c2ccc(/C=C/c3ccccn3)cc2)c(=O)c1Cl	520
Cc1csc2nc(-c3ccccn3)nc(Nc3ccc4ncsc4c3)c12	1110
CC1CCCCN1S(=O)(=O)c1ccc(NC(=O)c2cc(-c3ccccc3O)n[nH]2)cc1 (stereo unspecified)	760
Cc1noc(C)c1S(=O)(=O)N(C)Cc1ccc(-c2ccc(Cl)cc2)o1	360
CC(C)S(=O)(=O)N1CCN(Cc2ccc3c(c2)nc(NC(=O)c2ccsc2)n3C[C@H](O)c2ccccc2)CC1	270
Cc1noc(C)c1-c1ccc2c(Nc3ccccc3C(C)(C)C)c(C(=O)NCc3ccc(C(F)(F)F)cc3)cnc2c1	760

SMILES	IC50 [nM]
COCCn1c(C)nc2ccccc2c1=O	1460
CCCc1cc(Cc2cnc(N)nc2N)cc2c1OC(C)(C)C2	1080
O=C(/C=C/c1ccc(Cl)c(Cl)c1)NCCCCCN1CCC(NC(=O)NC2CCCC2)CC1	630
O=c1cc(NCCCNCc2ccc(Cl)c(Cl)c2)[nH]c2ccc(Cl)cc12	340
FC(F)(F)c1cccnc1N1CCC(Nc2nc3ccc(Cl)cc3[nH]2)CC1	650
CC(C)Nc1cc(C(=O)N[C@@H](Cc2ccccc2)[C@H](O)CNC2CCCCC2)cc(N2CCCCS2(=O)=O)c1	100
COc1ccc2ncc(F)c(CCN3CC[C@@H](CNCc4nc5c(cc4C)SCC(=O)N5)C3)c2n1	1150
COc1cc2nc(NCCn3ccnc3C)nc(NCCc3ccccc3)c2cc1OC	730
CCN(CC)Cc1cccc(-c2cc3c(-c4ccc(C(=O)O)c(C(C)C)c4)ccnc3[nH]2)c1OC	320
COc1cc(NC2=C(c3ccccc3)C(=O)c3ccccc32)ccn1	360
O=C(/C=C/c1ccc(Cl)c(Cl)c1)NCCCCCCN1CCN(C(=O)Nc2cc(Cl)nc(Cl)c2)CC1	780
CCC(=O)N[C@@H]1CN[C@@H](C#Cc2cc3c(Nc4ccc(OCc5cccc(F)c5)c(Cl)c4)ncnc3s2)C1	1120
CN(C)CC(O)C(O)(c1ccccc1)c1ccc(F)cc1 (stereo unspecified)	1150
N#Cc1ccc(-c2ccc(C(=O)NCCCCN3CCC(n4cnc5ccccc54)CC3)cc2)cc1	910
CCCNC(=O)c1cncc(-c2ccc(CNCCCc3ccccc3)cc2)c1	690
COc1ccc(CCN(C)CCOc2ccc(NC(=O)c3cccc4c(=O)c5cc(SC)ccc5[nH]c34)cc2)cc1OC	740
CS(=O)(=O)Cc1ccc(Nc2nccc(N3CCCc4cc(NC(=O)Nc5cccc(C(F)(F)F)c5)ccc43)n2)cc1	150
Cc1onc(-c2ccccc2)c1-c1nc(NC2CCCC(C)C2)no1 (stereo unspecified)	840
c1ccc(-c2nnc(-c3ccccn3)nc2NC2CCCCC2)cc1	910
O=C(CSc1nn(-c2ccccc2)c(=S)s1)c1c[nH]c2ccccc12	1090
O=[N+]([O-])c1ccc(C=NNc2nc(Nc3ccccc3)nc(Nc3ccccc3)n2)o1	840
CC(C)CC1c2[nH]c3ccccc3c(=O)c2CN1C(=O)OC(C)(C)C (stereo unspecified)	220
O=C(NCc1ccc(C(=O)N2CCC(N3CCCCC3)CC2)cc1)c1cc(-c2cccc(C(F)(F)F)c2)ccc1O	820
CCc1sc(N2CCC(C)CC2)nc1C(=O)Nc1ccc(F)cc1C(F)(F)F	1090

SMILES	IC50 [nM]
CC(C)CNC(=O)c1cncc(-c2ccc(CN3CCC(N4CCCC4)CC3)cc2)c1	690
Oc1cccc2c1CC(NCc1ccccc1)CC2 (stereo unspecified)	890
O=C1CSc2ccc(CNC3CCN(CCc4c(Cl)cnc5ccc(Cl)cc45)CC3)nc2N1	230
O=C(/C=C/c1ccc(Cl)c(Cl)c1)N1CCC(CCN2CCC(c3c[nH]c4ccncc34)CC2)CC1	1140
CC(=O)Nc1ccc(CN2CCC(N(C)c3cc(NC(=O)c4cccs4)ccn3)CC2)cc1	890
COc1ccc2nccc(NC(=O)C3(O)CCC(NCc4ccc5c(c4)NCCS5)CC3)c2n1 (stereo unspecified)	600
O=C(Nc1ccc(-c2csc(-c3nc4ccccc4[nH]3)c2)cc1)Nc1ccsc1	550
O=c1cc(NCCCNCc2ccc(C(F)(F)F)cc2F)[nH]c2ccccc12	960
CS(=O)(=O)Nc1ccc(-c2ccc3ccnc(N)c3c2)cc1	610
CCNc1cc(C(=O)N[C@@H](Cc2ccccc2)[C@H](O)CNC(C)CC(C)C)c(F)c(N2CCCCS2(=O)=O)c1 (stereo partly specified)	1120
Cc1ccc(F)cc1-c1cc(N2CCCN(C(=O)c3ccc(Br)o3)CC2)ncn1	1430
Cc1cc(NCCC(=O)NCCOc2ccccc2)nc(Nc2ccccc2)n1	1060
COc1cc(CNC[C@@H](O)[C@H](Cc2ccccc2)NC(=O)c2cc(OC(C)C)cc(N3CCCCS3(=O)=O)c2)cc(OC)c1	590
O=C(Cc1cnc[nH]1)Nc1cccc(-c2ccc(-c3nc4ccc(C(F)(F)F)cc4[nH]3)cc2)c1	700
O=C(CCc1cnc[nH]1)Nc1cccc(-c2cccc(-c3nc4ccccc4[nH]3)c2)c1	660
Cc1cccc2[nH]c(-c3cccc(-c4ccc(CNCCc5ccncc5)cc4)c3)nc12	120
Cc1ccccc1CN1CCCN(Cc2ccc(C(=O)Nc3ccc(Cl)cc3)cc2)CC1	940
Cn1cncc1-c1ccc2ncnc(Nc3ccc(OCc4ccccc4)cc3)c2c1	1340
COc1ccc(F)cc1-c1ccc(C(=O)N2CCCN(c3ccc(C#N)cn3)CC2)cc1	110
O=C1OC(c2ccccc2)(c2ccccn2)CN1C1CCN(Cc2cccn2-c2ccc(Cl)cc2)CC1 (stereo unspecified)	470
Cc1cc(NC(=O)NCCN2CCC(NC(=O)c3ccc(Cl)cc3)CC2)c2ccccc2n1	380
NCC1CCCN1Cc1cccc(-c2cccc(-c3nc4ccc(F)cc4[nH]3)c2)c1 (stereo unspecified)	810
CS(=O)(=O)Nc1cccc(-c2cnc3[nH]cc(-c4cc(N)cc(C(=O)O)c4)c3c2)c1	1080
O=C(NC1CCN(CCC(NC(=O)c2ccccc2)c2ccc(Cl)c(Cl)c2)CC1)c1ccc(Cl)cc1 (stereo unspecified)	1070
